Laboratory results reported in US20230242585A1, “IMMUNOMODULATORS” (Bristol-Myers Squibb Company, priority 2020, published 2023).
Starred links: 1 amine or outer side, 2 acyl side, 3 side chain; linkers in the order of their positions; H or OH if unused. Positions of bridges follow the written chain, without caps; N, C: chain ends. Non-standard residues stand in square brackets, D forms with d. Residues, ends and D or L forms follow the SMILES beside them. X41 = O=C([C@H](CCNC1[C@@H](O)[C@@H](O)[C@@H](O)[C@H](O)[C@H]1O)N[*:1])[*:2]; X25 = CC(=O)N[C@@H](CNCC[C@H](N[*:1])C(=O)[*:2])[C@@H](O)[C@H](O)[C@H](O)CO; X40 = O=C([C@H](CNC1[C@@H](O)[C@@H](O)[C@@H](O)[C@H](O)[C@H]1O)N[*:1])[*:2]; X24 = CC(=O)N[C@@H](CNC[C@H](N[*:1])C(=O)[*:2])[C@@H](O)[C@H](O)[C@H](O)CO; X52 = C[C@H](O)[C@H](O)[C@@H](O)[C@@H](O)CNC[C@H](N[*:1])C(=O)[*:2]; X58 = O=C([C@H](CNC[C@H](O)[C@@H](O)[C@H](O)[C@H](O)CO)N[*:1])[*:2]; X26 = O=C([C@H](CCNC[C@H](O)[C@H](O)[C@H](O)CO)N[*:1])[*:2]; X7 = O=C([C@H](CNC[C@H](O)[C@H](O)[C@H](O)CO)N[*:1])[*:2]; X46 = CCn1c2ccccc2c2cc(CNCC[C@H](N[*:1])C(=O)[*:2])ccc21; Trp(1-CH2COOH) = N[C@@H](Cc1cn(CC(=O)O)c2ccccc12)C(=O)O; X45 = CCn1c2ccccc2c2cc(CNC[C@H](N[*:1])C(=O)[*:2])ccc21; Hyp = O=C(O)[C@@H]1C[C@@H](O)CN1; NMeNle = CCCC[C@H](NC)C(=O)O; NMeA = CN[C@@H](C)C(=O)O; Dab = NCC[C@H](N)C(=O)O

target: T1, PD-1/PD-L1 (Homo sapiens, UniProt Q9NZQ7); assay: PD-1/PD-L1 Homogenous Time-Resolved Fluorescence (HTRF) binding assay; details: PD-L1-His 10 nM, PD-1-Ig 20 nM
T1 construct: TVMV protease site (linker) (C); made in house; host or cells: HEK293T cells
Method in brief: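 Compounds preincubated 15 min with PD-L1-His (residues 18-239, 10 nM) in dPBS with 0.1% BSA, 0.05% Tween-20, then PD-1-Ig (residues 25-167, 20 nM) for 15 min. Eu-cryptate anti-Ig (1 nM) and APC anti-His (20 nM) equilibrated 30 min; 665/620 nm ratio read, IC50 derived.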

T1 sequence (Q9NZQ7 18-239): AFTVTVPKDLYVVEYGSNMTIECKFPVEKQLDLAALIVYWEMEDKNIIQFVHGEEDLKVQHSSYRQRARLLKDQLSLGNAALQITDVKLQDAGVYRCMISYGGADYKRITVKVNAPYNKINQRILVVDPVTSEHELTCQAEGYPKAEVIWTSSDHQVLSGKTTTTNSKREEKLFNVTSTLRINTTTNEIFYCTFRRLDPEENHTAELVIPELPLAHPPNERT

`CCCC[C@H]1C(=O)N(C)[C@@H](CCCC)C(=O)N[C@@H](CC(C)C)C(=O)N[C@H](C(=O)NCC(N)=O)CSCC(=O)N[C@@H](Cc2ccc(O)cc2)C(=O)N(C)[C@@H](C)C(=O)N[C@@H](CC(N)=O)C(=O)N2CCC[C@H]2C(=O)N[C@@H](CNCc2ccc3c(c2)c2ccccc2n3CC)C(=O)N[C@@H](CC(C)C)C(=O)N2C[C@H](O)C[C@H]2C(=O)N[C@@H](Cc2c[nH]c3ccccc23)C(=O)N[C@@H](CCNCc2ccc3c(c2)c2ccccc2n3CC)C(=O)N[C@@H](Cc2cn(CC(=O)O)c3ccccc23)C(=O)N1C` [Example 1009] ({CH2CO}-Y[NMeA]NP[X45]L[Hyp]W[X46][Trp(1-CH2COOH)][NMeNle][NMeNle]LCG-NH2; thioether N-14) and `CCCC[C@H]1C(=O)N(C)[C@@H](CCCC)C(=O)N[C@@H](CC(C)C)C(=O)N[C@H](C(=O)NCC(N)=O)CSCC(=O)N[C@@H](Cc2ccc(O)cc2)C(=O)N(C)[C@@H](C)C(=O)N[C@@H](CC(N)=O)C(=O)N2CCC[C@H]2C(=O)N[C@@H](CNC[C@H](O)[C@H](O)[C@@H](O)[C@H](C)O)C(=O)N[C@@H](CC(C)C)C(=O)N2C[C@H](O)C[C@H]2C(=O)N[C@@H](Cc2c[nH]c3ccccc23)C(=O)N[C@@H](CCN)C(=O)N[C@@H](Cc2cn(CC(=O)O)c3ccccc23)C(=O)N1C` [Example 2042] ({CH2CO}-Y[NMeA]NP[X52]L[Hyp]W[Dab][Trp(1-CH2COOH)][NMeNle][NMeNle]LCG-NH2; thioether N-14) are within 1.5-fold of each other in IC50: 9.8 nM for the first, 6.7 nM for the second.

Compared with `CCCC[C@H]1C(=O)N(C)[C@@H](CCCC)C(=O)N[C@@H](CC(C)C)C(=O)N[C@H](C(=O)NCC(N)=O)CSCC(=O)N[C@@H](Cc2ccc(O)cc2)C(=O)N(C)[C@@H](C)C(=O)N[C@@H](CC(N)=O)C(=O)N2CCC[C@H]2C(=O)N[C@@H](CNC[C@H](O)[C@H](O)[C@H](O)CO)C(=O)N[C@@H](CC(C)C)C(=O)N2C[C@H](O)C[C@H]2C(=O)N[C@@H](Cc2c[nH]c3ccccc23)C(=O)N[C@@H](CCNC[C@H](O)[C@H](O)[C@H](O)CO)C(=O)N[C@@H](Cc2cn(CC(=O)O)c3ccccc23)C(=O)N1C` [Example 2003] ({CH2CO}-Y[NMeA]NP[X7]L[Hyp]W[X26][Trp(1-CH2COOH)][NMeNle][NMeNle]LCG-NH2; thioether N-14), `CCCC[C@H]1C(=O)N(C)[C@@H](CCCC)C(=O)N[C@@H](CC(C)C)C(=O)N[C@H](C(=O)NCC(N)=O)CSCC(=O)N[C@@H](Cc2ccc(O)cc2)C(=O)N(C)[C@@H](C)C(=O)N[C@@H](CC(N)=O)C(=O)N2CCC[C@H]2C(=O)N[C@@H](CNC[C@H](O)[C@@H](O)[C@H](O)[C@H](O)CO)C(=O)N[C@@H](CC(C)C)C(=O)N2C[C@H](O)C[C@H]2C(=O)N[C@@H](Cc2c[nH]c3ccccc23)C(=O)N[C@@H](CCN)C(=O)N[C@@H](Cc2cn(CC(=O)O)c3ccccc23)C(=O)N1C` [Example 2015] ({CH2CO}-Y[NMeA]NP[X58]L[Hyp]W[Dab][Trp(1-CH2COOH)][NMeNle][NMeNle]LCG-NH2; thioether N-14) is 5.5-fold lower in IC50: 9.9 nM for the first, 1.8 nM for the second. The second is the more potent here.

Compared with `CCCC[C@H]1C(=O)N(C)[C@@H](CCCC)C(=O)N[C@@H](CC(C)C)C(=O)N[C@H](C(=O)NCC(N)=O)CSCC(=O)N[C@@H](Cc2ccc(O)cc2)C(=O)N(C)[C@@H](C)C(=O)N[C@@H](CC(N)=O)C(=O)N2CCC[C@H]2C(=O)N[C@@H](CNC2[C@@H](O)[C@@H](O)[C@@H](O)[C@H](O)[C@H]2O)C(=O)N[C@@H](CC(C)C)C(=O)N2C[C@H](O)C[C@H]2C(=O)N[C@@H](Cc2c[nH]c3ccccc23)C(=O)N[C@@H](CCNC2[C@@H](O)[C@@H](O)[C@@H](O)[C@H](O)[C@H]2O)C(=O)N[C@@H](Cc2cn(CC(=O)O)c3ccccc23)C(=O)N1C` (stereo partly drawn) [Example 2033] ({CH2CO}-Y[NMeA]NP[X40]L[Hyp]W[X41][Trp(1-CH2COOH)][NMeNle][NMeNle]LCG-NH2; thioether N-14), `CCCC[C@H]1C(=O)N(C)[C@@H](CCCC)C(=O)N[C@@H](CC(C)C)C(=O)N[C@H](C(=O)NCC(N)=O)CSCC(=O)N[C@@H](Cc2ccc(O)cc2)C(=O)N(C)[C@@H](C)C(=O)N[C@@H](CC(N)=O)C(=O)N2CCC[C@H]2C(=O)N[C@@H](CNC[C@H](NC(C)=O)[C@@H](O)[C@H](O)[C@H](O)CO)C(=O)N[C@@H](CC(C)C)C(=O)N2C[C@H](O)C[C@H]2C(=O)N[C@@H](Cc2c[nH]c3ccccc23)C(=O)N[C@@H](CCNC[C@H](NC(C)=O)[C@@H](O)[C@H](O)[C@H](O)CO)C(=O)N[C@@H](Cc2cn(CC(=O)O)c3ccccc23)C(=O)N1C` [Example 2009] ({CH2CO}-Y[NMeA]NP[X24]L[Hyp]W[X25][Trp(1-CH2COOH)][NMeNle][NMeNle]LCG-NH2; thioether N-14) is 1.5-fold lower in IC50: 8.8 nM for the first, 5.7 nM for the second.
